According to ChEMBL document CHEMBL1201862, “PubChem BioAssay data set” (2004):
Activity calls are given as the source filed them.

How the values were obtained:
[1] = reduced cellular PGC1a acetyl-lysine signal – cell-based, cherry-picked samples, dose response (AID 720514); format: functional;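 note: potency may reflect raised or lowered acetylation signal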
[2] = toxicity to human hepatoma HepG2 cells – cell-based, cherry-picked samples, cytotoxicity control, dose response (AID 1159577); format: functional
[3] = P. falciparum Dd2 growth inhibitors, dose response, SYBR Green, cherry-picked samples (AID 1159567); format: functional, cell-based
Caspase-6 = molecular target: T1, Caspase-6 (Homo sapiens, UniProt P55212); test: inhibition of CASP6 peptide cleavage – biochemical, VEID-R110 fluorescence, cherry-pick, dose response (AID 720632)
T1 sequence (P55212 whole entry): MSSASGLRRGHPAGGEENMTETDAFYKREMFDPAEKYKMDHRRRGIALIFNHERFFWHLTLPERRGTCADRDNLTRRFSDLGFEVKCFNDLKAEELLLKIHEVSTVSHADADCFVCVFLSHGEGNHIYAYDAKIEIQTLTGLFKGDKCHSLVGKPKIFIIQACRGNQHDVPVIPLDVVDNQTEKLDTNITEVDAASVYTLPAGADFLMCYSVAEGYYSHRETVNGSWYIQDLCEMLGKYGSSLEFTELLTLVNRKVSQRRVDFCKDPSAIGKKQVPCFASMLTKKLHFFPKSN

[4] = Luminescence-based cell-based high throughput dose response assay to identify activators of the DAF-12 from the parasite S. stercoralis (ssDAF-12).; format: functional
[5] = molecular target: Luciferin 4-monooxygenase (Photinus pyralis, UniProt P08659); test: inhibition of purified Photinus pyralis luciferase – biochemical, luminescence, dose response (AID 1891)
Sequence of Luciferin 4-monooxygenase (P08659 whole entry, the tested form may be a part): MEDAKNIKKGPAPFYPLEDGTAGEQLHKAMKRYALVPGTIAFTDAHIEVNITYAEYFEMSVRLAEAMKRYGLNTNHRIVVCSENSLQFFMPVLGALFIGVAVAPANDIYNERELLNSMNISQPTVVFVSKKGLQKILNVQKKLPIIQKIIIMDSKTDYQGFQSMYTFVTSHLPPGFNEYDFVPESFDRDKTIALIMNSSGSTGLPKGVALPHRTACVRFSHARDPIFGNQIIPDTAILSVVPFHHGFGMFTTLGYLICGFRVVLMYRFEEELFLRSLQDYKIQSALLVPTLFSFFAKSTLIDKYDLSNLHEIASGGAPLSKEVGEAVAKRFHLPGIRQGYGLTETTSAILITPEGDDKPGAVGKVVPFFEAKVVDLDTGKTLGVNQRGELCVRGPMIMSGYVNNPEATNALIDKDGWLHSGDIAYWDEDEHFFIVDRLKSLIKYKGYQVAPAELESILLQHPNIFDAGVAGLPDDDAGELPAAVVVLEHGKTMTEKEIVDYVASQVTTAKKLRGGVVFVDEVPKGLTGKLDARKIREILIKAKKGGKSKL

[6] = molecular target: T2, Oxysterols receptor LXR-beta (Homo sapiens, UniProt P55055); test: LXR agonists, Gal4 luciferase reporter, dose response, counter-screen for ssDAF-12 agonist project, cell-based, luminescence, HEK293, S. stercoralis campaign (AID 720737); format: functional; details: read-out: IC50 (the source's name)
T2 sequence (P55055 whole entry): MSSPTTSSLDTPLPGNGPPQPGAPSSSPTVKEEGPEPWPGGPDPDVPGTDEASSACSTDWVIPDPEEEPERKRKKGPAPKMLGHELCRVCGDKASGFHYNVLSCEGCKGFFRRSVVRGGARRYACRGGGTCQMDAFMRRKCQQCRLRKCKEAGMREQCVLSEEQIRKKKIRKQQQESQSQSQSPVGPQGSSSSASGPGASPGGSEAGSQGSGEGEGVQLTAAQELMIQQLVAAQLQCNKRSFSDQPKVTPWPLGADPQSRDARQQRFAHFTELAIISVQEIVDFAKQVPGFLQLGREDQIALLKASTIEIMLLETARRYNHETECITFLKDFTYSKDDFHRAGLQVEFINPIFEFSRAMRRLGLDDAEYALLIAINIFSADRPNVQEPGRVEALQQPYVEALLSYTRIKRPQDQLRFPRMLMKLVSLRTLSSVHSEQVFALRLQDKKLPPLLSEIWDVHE

[7] = Luminescence Cell-Based Dose Confirmation HTS to Identify Inhibitors of Platelet Dense Granule Release. [Related pubchem assays: 1663 (Primary HTS), 1678 (Summary of Project)]; format: functional
[8] = general cell-killing toxicity readout – plate reader, dry powder samples, cytotoxicity control for PAX8 inhibitor project, dose response (AID 743021); format: functional, cell-based
Paired box protein Pax-8 = Paired box protein Pax-8 (Homo sapiens, UniProt Q06710); test: PAX8 transcriptional activity inhibition in RMG-I – RMG-I cells, luciferase, cherry-pick, dose response (AID 687027); format: functional, cell-based;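 note: luciferase reporter driven by Pax8 target thyroperoxidase promoter measured by SteadyGlo luminescence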
Sequence of Paired box protein Pax-8 (Q06710 whole entry): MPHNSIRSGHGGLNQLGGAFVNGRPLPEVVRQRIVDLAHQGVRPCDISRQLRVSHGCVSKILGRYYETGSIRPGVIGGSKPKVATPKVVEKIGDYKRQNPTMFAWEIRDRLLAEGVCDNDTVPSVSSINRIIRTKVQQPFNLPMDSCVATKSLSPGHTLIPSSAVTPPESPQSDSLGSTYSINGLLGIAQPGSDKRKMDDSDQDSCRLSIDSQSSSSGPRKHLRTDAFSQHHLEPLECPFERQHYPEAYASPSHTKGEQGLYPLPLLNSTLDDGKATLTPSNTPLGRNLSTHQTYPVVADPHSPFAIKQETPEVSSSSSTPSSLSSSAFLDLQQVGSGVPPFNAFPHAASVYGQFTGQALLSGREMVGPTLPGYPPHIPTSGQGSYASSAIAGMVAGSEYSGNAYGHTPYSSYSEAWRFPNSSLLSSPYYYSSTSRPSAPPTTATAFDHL

[9] = OVCAR8 cell viability loss – plate reader, dry powder samples, PAX8 project, dose response (AID 743197); format: functional, cell-based; details: OVCAR-8
[10] = molecular target: T3, High affinity choline transporter 1 (Homo sapiens, UniProt Q9GZV3); test: human choline transporter blockers, potency – cell-based, 5-point CRC, membrane potential dye, dose response (AID 504840); format: functional
T3 sequence (Q9GZV3 whole entry): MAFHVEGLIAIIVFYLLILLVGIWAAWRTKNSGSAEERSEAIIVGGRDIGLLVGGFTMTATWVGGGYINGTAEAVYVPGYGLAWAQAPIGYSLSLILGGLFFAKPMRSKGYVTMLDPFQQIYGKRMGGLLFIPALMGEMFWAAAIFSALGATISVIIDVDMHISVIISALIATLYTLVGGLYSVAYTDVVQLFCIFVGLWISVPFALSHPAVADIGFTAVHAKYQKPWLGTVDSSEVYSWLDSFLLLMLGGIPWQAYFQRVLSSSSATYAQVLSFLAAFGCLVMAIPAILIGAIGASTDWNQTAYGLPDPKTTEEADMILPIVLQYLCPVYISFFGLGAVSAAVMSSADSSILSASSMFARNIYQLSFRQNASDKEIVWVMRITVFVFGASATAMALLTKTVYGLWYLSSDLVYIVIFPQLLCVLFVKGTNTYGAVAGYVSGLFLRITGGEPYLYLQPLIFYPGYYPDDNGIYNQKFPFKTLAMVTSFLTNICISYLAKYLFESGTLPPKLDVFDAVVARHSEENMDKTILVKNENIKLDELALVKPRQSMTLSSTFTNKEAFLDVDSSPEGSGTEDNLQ

[11] = molecular target: T4, DNA repair protein RAD52 homolog (Homo sapiens, UniProt P43351); format: functional, biochemical
T4 sequence (P43351 whole entry): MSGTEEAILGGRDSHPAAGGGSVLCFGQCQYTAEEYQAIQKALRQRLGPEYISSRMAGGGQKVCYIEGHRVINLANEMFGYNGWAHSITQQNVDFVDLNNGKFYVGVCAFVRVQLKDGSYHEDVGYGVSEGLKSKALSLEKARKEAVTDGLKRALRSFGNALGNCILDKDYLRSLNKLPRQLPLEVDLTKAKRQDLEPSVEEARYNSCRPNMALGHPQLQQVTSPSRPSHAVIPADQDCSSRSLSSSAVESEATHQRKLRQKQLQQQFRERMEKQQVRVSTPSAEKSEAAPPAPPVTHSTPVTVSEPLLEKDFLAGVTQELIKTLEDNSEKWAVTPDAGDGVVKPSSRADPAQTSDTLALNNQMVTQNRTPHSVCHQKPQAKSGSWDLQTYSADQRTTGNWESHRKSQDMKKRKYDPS

[12] = IGROV1 cell killing – plate reader, dry powder samples, PAX8 inhibitor project, dose response (AID 743043); format: functional, cell-based; details: IGROV-1
[13] = OVCAR-3 cell viability loss – plate reader, dry powder samples, PAX8 inhibitor project, dose response (AID 743044); format: functional, cell-based
[14] = viability loss in THP-1 monocytes – THP-1 cells, cytotoxicity control for Vif-APOBEC3G degradation inhibitor project, dose response (AID 1117359); format: functional; details: THP-1
Estrogen receptor beta [15] = molecular target: T5, Estrogen receptor beta (Homo sapiens, UniProt Q92731);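 note: recombinant ER-beta bound to coactivator SRC1 peptide in presence of estradiol agonist; inhibitors block coactivator peptide binding and lower the FRET signal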
T5 sequence (Q92731 whole entry): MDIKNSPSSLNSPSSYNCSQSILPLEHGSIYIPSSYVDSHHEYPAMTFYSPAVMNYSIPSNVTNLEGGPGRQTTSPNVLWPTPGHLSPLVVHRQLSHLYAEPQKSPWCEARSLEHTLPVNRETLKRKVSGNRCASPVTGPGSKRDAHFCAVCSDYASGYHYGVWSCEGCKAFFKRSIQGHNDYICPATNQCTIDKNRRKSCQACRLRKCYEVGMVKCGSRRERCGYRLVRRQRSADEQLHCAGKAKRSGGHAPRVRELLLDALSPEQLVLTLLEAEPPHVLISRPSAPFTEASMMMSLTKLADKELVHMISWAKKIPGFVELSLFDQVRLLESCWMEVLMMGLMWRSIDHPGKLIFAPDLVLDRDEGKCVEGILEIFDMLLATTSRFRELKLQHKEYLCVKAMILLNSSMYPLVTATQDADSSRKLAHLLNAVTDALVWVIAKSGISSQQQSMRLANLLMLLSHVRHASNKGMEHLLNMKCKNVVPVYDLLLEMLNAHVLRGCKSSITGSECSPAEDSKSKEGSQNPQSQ

Estrogen receptor beta [16] = molecular target: T5, Estrogen receptor beta; test: blockers of SRC-3 recruitment to ERβ – biochemical, ELISA, streptavidin-HRP readout, orthogonal assay, confirmation (AID 1060)
[17] = system: Streptococcus sp. 'group A'; test: Streptococcus pyogenes SK(-)GAS viability under kanamycin – luminescence, BacTiterGlo, confirmation, counter-screen for streptokinase expression inhibitor project, dose response (AID 1900); format: functional, organism-based
[18] = microbe, parasite or virus in culture; format: functional; details: Mycobacterium tuberculosis
Streptokinase A = molecular target: T6, Streptokinase A (Streptococcus pyogenes serotype M1, UniProt P10520); test: viability-normalized secreted streptokinase activity reduction – plasminogen activation absorbance, OD405, dose response (AID 1914); format: functional, Streptococcus pyogenes M1 GAS;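 note: secreted streptokinase activity via plasminogen activation per viability signal from cell pellet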
T6 sequence (P10520 whole entry): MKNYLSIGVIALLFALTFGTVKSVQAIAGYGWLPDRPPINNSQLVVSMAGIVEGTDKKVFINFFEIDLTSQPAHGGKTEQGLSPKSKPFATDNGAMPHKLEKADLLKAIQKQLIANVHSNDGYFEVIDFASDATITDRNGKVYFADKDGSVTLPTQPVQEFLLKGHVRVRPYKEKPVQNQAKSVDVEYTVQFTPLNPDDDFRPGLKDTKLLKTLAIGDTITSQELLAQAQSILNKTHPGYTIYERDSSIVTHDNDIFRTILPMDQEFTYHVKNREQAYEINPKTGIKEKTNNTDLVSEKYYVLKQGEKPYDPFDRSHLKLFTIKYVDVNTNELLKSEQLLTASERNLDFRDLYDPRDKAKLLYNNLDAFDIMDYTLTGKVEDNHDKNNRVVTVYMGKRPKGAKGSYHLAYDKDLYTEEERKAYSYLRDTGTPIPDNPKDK

[19] = NIH3T3 cell viability loss – ATP luminescence, mouse fibroblasts, counter-screen, dose response (AID 2010); format: functional, cell-based;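 note: cells exposed to compound for about 90 hours before reading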
[20] = Trypanosoma cruzi growth suppression in host cells – NIH3T3 host cells, beta-gal luminescence, confirmation (AID 2044); format: functional, cell-based;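 note: intracellular parasites grown in NIH/3T3 mouse fibroblasts as host cells; luminescent beta-galactosidase reporter signal from transgenic T. cruzi replicating inside host cells; inhibitors lower the luminescence signal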
[21] = NIH-3T3 fibroblast cytotoxicity, dose response, cytotoxicity control, cell-based, fluorescence, Alamar Blue, secondary assay (AID 2327); format: functional;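 note: NIH-3T3 mouse fibroblasts cultured with fluconazole at 8 µg/mL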
[22] = fluconazole-exposed Candida albicans growth modulators – fluorescence, retest, confirmation (AID 2467); format: functional, cell-based
Streptococcus = test: GAS UMAA2166 growth inhibition – luminescence, BacTiterGlo, counter-screen for streptokinase expression inhibitor project, dose response (AID 1915); format: functional, organism-based;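 note: potency for reduction of bacterial viability or growth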
[23] = molecular target: T7, Endoribonuclease toxin MazF (Escherichia coli K-12, UniProt P0AE70); test: substrate-only fluorescence increase artefacts – biochemical, single-stranded RNase substrate, counter-screen for MazEF activator project, dose response (AID 588502); format: functional
T7 sequence (P0AE70 whole entry): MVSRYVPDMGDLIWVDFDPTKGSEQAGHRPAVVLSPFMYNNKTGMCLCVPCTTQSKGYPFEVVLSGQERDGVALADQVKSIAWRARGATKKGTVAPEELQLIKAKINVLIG

[24] = molecular target: T7, Endoribonuclease toxin MazF; test: activation of MazEF endoribonuclease cleavage – biochemical, fluorescence, single-stranded RNA substrate, uHTS hits, dose response (AID 588481); format: functional

## COc1ccc(-c2nc3ccccc3c(=O)o2)cc1OC
[1]
  AC50: 28.1 µM (active)

## O=C(Nc1ccccc1)N1CCCCN2[C@@H](CO)[C@@H](c3ccc(-c4ccccc4)cc3)[C@@H]2C1
[2]
  AC50: 9.01 µM (active)
[3]
  AC50: 4.43 µM (active)

## O=C(O)c1ccccc1NS(=O)(=O)c1ccc(N/N=C/c2cccc(O)c2O)c([N+](=O)[O-])c1
Caspase-6
  AC50: 6.45 µM (active)

## Cc1ccc(Nc2nc(N)c3ccccc3n2)cc1Cl
[4]
  IC50: > 67.6 µM (inactive)
[5]
  EC50: 0.528 µM (active)
[6]
  EC50: > 67.6 µM (inactive)
[7]
  EC50: 4.99 µM (active)

## C[C@H](CO)N1C[C@H](C)[C@@H](CN(C)C(=O)Cc2ccccc2)OCCCC[C@H](C)Oc2ccc(NC(=O)Nc3ccc(C(F)(F)F)cc3)cc2C1=O
[8]
  AC50: 48.5 µM (active)
Paired box protein Pax-8
  AC50: 4.34 µM (active)
[9]
  AC50: > 70 µM (inactive)

## CCN1CCN(c2cc(C)c3cc(NC(=S)N4CCOCC4)ccc3n2)CC1
[10]
  IC50: 12.6 µM (active)
[11]
  AC50: 22 µM (active)

## CCCCOc1ccc(/C=C/C(=O)OCC(=O)c2c(N)n(C)c(=O)n(C)c2=O)cc1OCC
[1]
  AC50: 12.6 µM (active)

## C[C@H]1CCCCO[C@H](CN(C)C(=O)Nc2ccc(C(F)(F)F)cc2)[C@@H](C)CN([C@@H](C)CO)C(=O)c2cc(NC(=O)Nc3ccccc3)ccc2O1
[12]
  AC50: 59.3 µM (active)
Paired box protein Pax-8
  AC50: 3.02 µM (active)
[13]
  AC50: 22.1 µM (active)
[9]
  AC50: > 70 µM (inactive)

## CCCC#Cc1ccc([C@H]2[C@@H](CO)N3CCCCN(S(=O)(=O)Cc4ccccc4)C[C@H]23)cc1
[12]
  AC50: 30.9 µM (active)
[2]
  AC50: 11.9 µM (active)
[3]
  AC50: 2.67 µM (active)
Paired box protein Pax-8
  AC50: 20.5 µM (active)
[13]
  AC50: 23.5 µM (active)
[9]
  AC50: > 70 µM (inactive)

## CCOc1ccc(C(=O)NC(=S)Nc2ccc(N3CCC(C)CC3)cc2)cc1[N+](=O)[O-]
[14]
  CC50: > 40 µM (active)

## CC(C)c1ccc(-c2nnn(CC(=O)N3CCCCC3)n2)cc1
[1]
  AC50: 24.3 µM (active)

## COc1ccc(-c2nn(-c3ccccc3)cc2C(=O)Nc2cccc(C(=O)O)c2)cc1[N+](=O)[O-]
Caspase-6
  AC50: 5.45 µM (active)

## CC(=N)/C(C#N)=C(/O)CSc1nnnn1-c1ccc(C)cc1
Estrogen receptor beta [15]
  IC50: 13.7 µM (active)
Estrogen receptor beta [16]
  IC50: 0.345 µM (not active)

## O=C(N/N=C\C=C\c1ccc([N+](=O)[O-])o1)c1cccs1
[17]
  EC50: 3.56 µM (active)
[18]
  CC50: 30.6 µM (active)
Streptokinase A
  EC50: > 150 µM (not active)
[19]
  EC50: 5.29 µM (active)
[20]
  EC50: 0.243 µM (active)
[21]
  EC50: > 160 µM (inconclusive)
Caspase-6
  AC50: 7.38 µM (active)
[22]
  EC50: 0.068 µM (active)
Streptococcus
  EC50: 6.16 µM (active)

## COC(=O)[C@]1(C)N[C@H](CN(C)C(C)=O)[C@@H]2C(=O)N(Cc3ccccc3)C(=O)[C@@H]21
[4]
  IC50: > 67.5 µM (inactive)
[6]
  EC50: > 67.5 µM (inactive)

## O=S(=O)(c1ccccc1)N1C[C@@H]2N[C@H](C1)[C@@H]2c1ccc(-c2ccc(F)cc2)cc1
[2]
  AC50: 10.9 µM (active)
[3]
  AC50: 5.34 µM (active)

## COc1cccc(CN(C)C[C@H]2OCc3ccccc3-c3c(n(C)c4ccccc34)C(=O)N([C@@H](C)CO)C[C@H]2C)c1
[2]
  AC50: 18 µM (active)
[3]
  AC50: 1.62 µM (active)

## CCn1c(C)cc(C=C2C(=O)c3ccccc3C2=O)c1C
[23]
  EC50: 62.8 µM (inactive)
[4]
  IC50: > 67.5 µM (inactive)
[6]
  EC50: > 67.5 µM (inactive)
[24]
  EC50: 44.5 µM (inactive)
